The values that follow come from ChEMBL document CHEMBL5143581, “Design, synthesis and molecular docking studies of imidazole and benzimidazole linked ethionamide derivatives as inhibitors of InhA and antituberculosis agents” (Bioorg Med Chem Lett, 2022).

In data set [1] the test system is Mycobacterium tuberculosis. Kind of data set: Antimycobacterial activity against Mycobacterium tuberculosis H37Rv. Format: functional.
For the next data set, the system named is Vero. Description: Cytotoxicity in African green monkey Vero cells assessed as reduction in cell viability. Format: toxicity, cell-based. The note with it: chlorocebus sabaeus.

In brackets after ≈: the same amount, converted by molar mass. Where only a bound is given, the exact number is not on record here.

The term MIC denotes the lowest concentration found to suppress growth. `Cc1ccc2c(c1)nc(NC(=O)c1cc(C(N)=S)ccn1)n2C` yielded an MIC in data set [1] of 3.14 µM (≈ 1.02 µg/mL). Further, the Activity in the data set on Vero was above 100 µM.

Compound `COc1ccc2c(c1)nc(NC(=O)c1cc(C(N)=S)ccn1)n2C` displayed a minimal inhibitory concentration (MIC) in data set [1] of 0.35 µM (≈ 0.119 µg/mL). Moreover, in the data set on Vero, the Activity is above 100 µM.

`NNC(=O)c1ccncc1` [ISONIAZID]: 0.36 µM (≈ 0.0494 µg/mL) was the least that counted as inhibitory in data set [1] (MIC). Also, in the data set with Vero, the Activity was above 100 µM.

On to `CCc1cc(C(N)=S)ccn1` [ETHIONAMIDE], for which the minimum inhibitory concentration (MIC) in data set [1] was 6.63 µM (≈ 1.1 µg/mL). Further, in the data set with Vero, the Activity is above 100 µM.

Consider `NC(=S)c1ccnc(C(=O)Nc2ncc[nH]2)c1`, for which it took 23.8 µM (≈ 5.9 µg/mL) to inhibit growth in data set [1] (MIC). Besides, the Activity with Vero was above 100 µM.

With `Cn1cc(O)nc1NC(=O)c1cc(C(N)=S)ccn1`, the MIC in data set [1] was found to be 0.97 µM (≈ 0.269 µg/mL). Moreover, the Activity with Vero is above 100 µM.

`Cn1c(NC(=O)c2cc(C(N)=S)ccn2)nc2ccccc21` had an MIC in data set [1] of 6.52 µM (≈ 2.03 µg/mL). In the data set on Vero, the Activity is above 100 µM.

In data set [1], `Cn1ccnc1NC(=O)c1cc(C(N)=S)ccn1` came in with an MIC of 15.1 µM (≈ 3.95 µg/mL). Moreover, the Activity with Vero is above 100 µM.

For the compound `CC[C@@H](CO)NCCN[C@@H](CC)CO` [ETHAMBUTOL], inhibition of growth in data set [1] (MIC) required 5.01 µM (≈ 1.02 µg/mL). The Activity in the data set with Vero was above 100 µM.

In data set [1], `NC(=O)c1cnccn1` [PYRAZINAMIDE] came in with an MIC of 3.12 µM (≈ 0.384 µg/mL). For the same compound, the Activity in the data set on Vero was above 100 µM.

The compound `Cc1cn(C)c(NC(=O)c2cc(C(N)=S)ccn2)n1` gave an MIC in data set [1] of 13.6 µM (≈ 3.75 µg/mL). Also, the Activity with Vero was above 100 µM.

Turning to `O=C(O)c1cn(C2CC2)c2cc(N3CCNCC3)c(F)cc2c1=O` [CIPROFLOXACIN], the MIC in data set [1] was 4.73 µM (≈ 1.57 µg/mL). Also, the Activity in the data set on Vero was above 100 µM.

`Cn1cc(C#N)nc1NC(=O)c1cc(C(N)=S)ccn1` registered an MIC in data set [1] of 1.24 µM (≈ 0.355 µg/mL). The Activity in the data set with Vero was above 100 µM.

`Cn1c(NC(=O)c2cc(C(N)=S)ccn2)nc2cc(O)ccc21` yielded an MIC in data set [1] of 0.27 µM (≈ 0.0884 µg/mL). Also, the Activity in the data set on Vero was above 100 µM.

The compound `NC(=S)c1ccnc(C(=O)Nc2nc3ccccc3[nH]2)c1` showed an MIC in data set [1] of 12.6 µM (≈ 3.73 µg/mL). Also, the Activity with Vero is above 100 µM.
